Biological target: T1, CDK2/CycE1 (Homo sapiens, UniProt P24941)
T1 construct: 1.5 nM CDK2/CycE1, amino acids 1-298/1-410, Carna BS; purchased Carna BS (Carna Biosciences) 04-165, lot 20CBS-0731B
Test: CDK2 inhibition assay, PhosphoSens CSox-based Kinetic Assay Format (AssayQuant)
Type: biochemical
Settings: 1.5 nM CDK2/CycE1, 1.5× Km ATP, 30 minute preincubation at 30° C., reaction 240 minutes; read-out: IC50 CDK2-CycE1 (AssayQuant) Using PhosphoSens ® CSox-based Kinetic Assay Format
Protocol: Inhibition of CDK2 was measured using PhosphoSens® CSox-based Kinetic Assay Format (AssayQuant Technologies) as follows:
• 2.5 μl 10× Inhibitor in 10% DMSO (3-fold titration in 10% DMSO for a final DMSO concentration of 1%) • […] Reaction Mix with ATP, DTT, & CSx Substrate • 30 minute preincubation at 30° C. • […] Enzyme dilution buffer (EDB) (1×) or Kinase (5× in EDB); Enzyme Dilution Buffer (EDB): 20 mM HEPES, pH 7.5, 0.01% Brij-35, 0.1 mM EGTA, 5% Glycerol, 1.0 mg/ml BSA, 1.0 mM DTT • 25 μL Final reaction volume • Reaction was run at 30° C. for 240 minutes
• 54 mM HEPES, pH 7.5 • 1.5× Km ATP (see ATP TAB) • 1.2 mM DTT • 0.012% Brij-35 • 0.52 mM EGTA • 1% glycerol • 0.2 mg/ml BSA • 10 mM MgCl2 • 15 μM AQT0297
Reactions were run in Corning, low volume 384-well, white flat round bottom polystyrene NBS microplates (Cat. #3824) after sealing using optically-clear adhesive film (TopSealA-Plus plate seal, PerkinElmer [Cat. #6050185])
The letter codes for CDK2 inhibition include: A (<100 nM), B (≥100-500 nM), C (>500-1000 nM), and D (>1000 nM).

Compound	IC50
CCS(=O)(=O)c1ccc(Nc2ncc(C(F)(F)F)c(-c3cnn(C)c3)n2)c(C)c1 [I-27, N-(4-ethylsulfonyl-2-methyl-phenyl)-4-(1-methylpyrazol-4-yl)-5-(trifluoromethyl) pyrimidin-2-amine]	< 100 nM
CCS(=O)(=O)c1ccc(Nc2nccc(-c3cnc(C)n3C(C)C)n2)c(C)c1 [I-29, N-(4-ethylsulfonyl-2-methyl-phenyl)-4-(3-isopropyl-2-methyl-imidazol-4-yl) pyrimidin-2-amine]	100 to 500 nM
CCS(=O)(=O)c1ccc(Nc2ncc3cc(Cl)c(=O)n(C(C)C)c3n2)c(C)c1 [I-30]	100 to 500 nM
CCS(=O)(=O)c1ccc(Nc2ncc3cc(C(F)F)c(=O)n(C(C)C)c3n2)c(C)c1 [I-31]	> 1000 nM
CCS(=O)(=O)c1ccc(Nc2ncc3c(n2)N(C2CCCC2)C(=O)C32CC2)c(C)c1 [I-35]	< 100 nM
CCS(=O)(=O)c1ccc(Nc2ncc(C(F)(F)F)c([C@H]3CC[C@@](C)(O)CC3)n2)c(C)c1 [I-40]	> 1000 nM
Cc1cc(S(=O)(=O)C2CCC3(CC2)CN(C)C3)ccc1Nc1ncc2cc(Cl)c(=O)n(C3CCCC3)c2n1 [I-41]	< 100 nM
CCS(=O)(=O)c1ccc(Nc2ncc3cc(C(F)F)nc(N4CCCC4)c3n2)c(C)c1 [I-42]	< 100 nM
CCS(=O)(=O)c1ccc(Nc2ncc(C(F)(F)F)c([C@H]3CC[C@](C)(O)CC3)n2)c(C)c1 [I-43]	> 1000 nM
CCS(=O)(=O)c1ccc(Nc2ncc(C(F)(F)F)c(-c3cn(C(C)C)c(C)n3)n2)c(C)c1 [I-44]	< 100 nM
CCS(=O)(=O)c1ccc(Nc2ncc(C(F)(F)F)c(-c3cnn(C)c3C(F)F)n2)c(C)c1 [I-45]	500 to 1000 nM
CCS(=O)(=O)c1ccc(Nc2ncc3cc(F)c(=O)n(C4CCCC4)c3n2)c(C)c1 [I-52]	100 to 500 nM
CCS(=O)(=O)c1ccc(Nc2ncc3cc(C(F)(F)F)c(=O)n(C4CCCC4)c3n2)c(C)c1 [I-53]	500 to 1000 nM
CNS(=O)(=O)c1ccc(Nc2ncc(C(F)(F)F)c([C@H]3CC[C@@](C)(O)CC3)n2)c(C)c1 [I-67]	< 100 nM
CNS(=O)(=O)c1ccc(Nc2ncc(C(F)(F)F)c(C3CCCCC3)n2)c(C)c1 [I-68]	> 1000 nM
Cc1cc(CS(C)(=O)=O)ccc1Nc1ncc2cc(Cl)c(=O)n(C(C)C)c2n1 [I-197]	> 1000 nM
Cc1cc(CS(C)(=N)=O)ccc1Nc1ncc2cc(Cl)c(=O)n(C(C)C)c2n1 (stereo not drawn) [I-207]	100 to 500 nM
CCS(=N)(=O)c1ccc(Nc2ncc3cc(Cl)c(=O)n(C(C)C)c3n2)c(C)c1 (stereo not drawn) [I-208]	100 to 500 nM
COCc1cc(-c2ccc(Nc3ncc4cc(Cl)c(=O)n(C(C)C)c4n3)c(C)c2)n(C)n1 [I-210]	> 1000 nM
CC(C)(O)c1cccc2cnc(NC3CCN(S(C)(=O)=O)CC3)cc12 [I-212]	100 to 500 nM

Compound	IC50
CNS(=O)(=O)c1cc(C)c(Nc2ncc3cc(Cl)c(=O)n(C(C)C)c3n2)cn1 [I-213]	100 to 500 nM
CC(C)c1cccc2cnc(NC3CCN(S(C)(=O)=O)CC3)nc12 [I-215]	< 100 nM
CNS(=O)(=O)c1ccc(Nc2ncc3cc(Cl)c(=O)n(C(C)C)c3n2)c(C)n1 [I-218]	100 to 500 nM
CC(=O)N(c1ccc(-c2cnn(C)c2)cc1)[C@H]1CC[C@H](Nc2ncc3cc(Cl)c(=O)n(C(C)C)c3n2)CC1 [I-228]	100 to 500 nM
CNS(=O)(=O)c1ccc(Nc2nc(OC3CCCCC3)c3ncsc3n2)c(C)c1 [I-234]	> 1000 nM
CC(=O)N1CCC(Nc2ncc3cc(Cl)c(=O)n(C(C)C)c3n2)CC1 [I-235]	500 to 1000 nM
COC1CC2(CCC(Nc3ncc4cc(Cl)c(=O)n(C5CCCC5)c4n3)CC2)C1 (stereo not drawn) [I-239]	> 1000 nM
CNS(=O)(=O)c1ccc(Nc2ncc3cc(C(F)F)c(=O)n(C4CCCC4)c3n2)c(C)c1 [I-242]	< 100 nM
CNS(=O)(=O)c1ccc(Nc2ncc3cc(Cl)c(=O)n(C(C)C)c3n2)c(C)c1 [I-247]	< 100 nM
CNS(=O)(=O)c1ccc(Nc2ncc3ccc(=O)n(C4CCCC4)c3n2)c(C)c1 [I-252]	< 100 nM
Cn1cc(S(=O)(=O)N2CCC(Nc3ncc4c(n3)N([C@@H]3CCC[C@@]3(C)O)C(=O)C43CC3)CC2)cn1 [I-254]	< 100 nM
Cn1cc(S(=O)(=O)N2CCC(Nc3ncc4c(n3)N(C3CCCC3)C(=O)C43CC3)CC2)cn1 [I-255]	< 100 nM
CNS(=O)(=O)c1ccc(Nc2ncc3cc(C(F)F)c(=O)n([C@@H]4CCC[C@@]4(C)O)c3n2)c(C)c1 [I-256]	< 100 nM
CNS(=O)(=O)c1ccc(Nc2ncc(C(F)(F)F)c(-c3cnc(C)n3C(C)C)n2)c(C)c1 [I-265]	100 to 500 nM
CNS(=O)(=O)c1ccc(Nc2ncc(C(F)(F)F)c(-c3cn(C(C)C)c(C)n3)n2)c(C)c1 [I-266]	< 100 nM
CNS(=O)(=O)c1ccc(Nc2ncc(C(F)(F)F)c(-c3cnn(C)c3C(F)F)n2)c(C)c1 [I-267]	100 to 500 nM
CNS(=O)(=O)c1ccc(Nc2nccc(-c3cnc(C)n3C(C)C)n2)c(C)c1 [I-269]	< 100 nM
CNS(=O)(=O)c1ccc(Nc2ncc(C(F)(F)F)c(C3CCOCC3)n2)c(C)c1 [I-271]	500 to 1000 nM
Cc1cc(S(N)(=O)=O)ccc1Nc1ncc(C(F)(F)F)c(-c2cnn(C)c2)n1 [I-272]	< 100 nM
